According to article doi:10.1101/2025.02.17.637997, “Phosphorylation-State Modulated Binding of HSP70: Structural Insights and Compensatory Protein Engineering” (bioRxiv, 2025):

Tests used:
Format in all cases: binding
CHIP-WT or CHIP-G132N = experiment: Fluorescence polarization, phosphorylated vs unmodified EEVD peptide; details: FP, CHIP-WT or CHIP-G132N (Fig. 2B)
Excerpt: (§1) A complete list of vectors is listed in Table S1 and deposited at Addgene (pending ID). Plasmids were maintained and propagated in DH5-alpha E. coli and purified using the Miniprep plasmid kit (Qiagen) or Quantum Prep® Plasmid Midiprep Kit (Bio-Rad). We used the Q5 Site-Directed Mutagenesis Kit (NEB) or […] II XL (NC9045762, Agilent Technologies) site-directed mutagenesis kit for editing plasmids and validated via DNA sequencing. Lifetein or Genscript synthesized the peptides used in the study. […] The amino-terminal biotin-labeled HSP70 tail peptide (biotin-[…], termed as biotin-EEVD) and the amino-terminal biotin-labeled pT-HSP70 tail peptide (biotin-GSGSGP(pT)IEEVD, termed as biotin-pEEVD) were purchased (Lifetein). The peptides used for fluorescent polarization were N-FITC-Ahx-[…] (EEVD) or N-FITC-Ahx-GSGP(pT)IEEVD (pEEVD). Recombinant CHIP-TPR constructs were recombinantly expressed using the pHis//2 CHIP-TPR (21–154) plasmid and purified as previously described ([21]) and additional CHIP proteins were purified as previously described ([22]).
The N-terminally-labelled peptides were loaded into PCR reaction tubes at 2X (40 nM), with the final concentration being 20 nM. Recombinant CHIP constructs were added into the tubes at the indicated concentrations. […] The polarization reads were normalized to the dilution buffer. […]

[1] = molecular target: T1, CHIP TPR (residues 21–154) (Homo sapiens, UniProt Q9UNE7); experiment: Biolayer interferometry, CHIP TPR (21-154); details: BLI; pEEVD vs EEVD; Fig. 2E
T1 construct: the extended TPR domain of CHIP (residues 21–154) using BLI; His; made in house
Excerpt: as §1
Bio-layer interferometry measured peptide binding using a BLItz instrument (FortéBio, Sartorius) with streptavidin (SA) sensors. […] Affinities (Kd) were calculated by the BLItz Pro software as Kd=koff/kon, where koff and kon were determined by individual fits to the “dissociation step” and “association step,” respectively, for each run.

CHIP-G132N = molecular target: T2, CHIP-G132N (Homo sapiens, UniProt Q9UNE7, G132N); experiment: Biolayer interferometry, CHIP-G132N TPR; details: BLI; kon; CHIP-G132N TPR towards pEEVD; Fig. S2
T2 construct: Recombinant CHIP-TPR constructs were recombinantly expressed using the pHis//2 CHIP-TPR (21–154) plasmid; His; made in house
T2 sequence (Q9UNE7 21-154 G132N): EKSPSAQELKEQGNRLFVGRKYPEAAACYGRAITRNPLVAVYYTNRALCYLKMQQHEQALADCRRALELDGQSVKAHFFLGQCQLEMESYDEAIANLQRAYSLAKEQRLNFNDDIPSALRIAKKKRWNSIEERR
Description: Bio-layer interferometry measured peptide binding using a BLItz instrument (FortéBio, Sartorius) with streptavidin (SA) sensors. Biotin-EEVD and biotin-pEEVD were solubilized in 20 mM HEPES, 150 mM NaCl, pH 7.0. Affinity measurements were made using the advanced kinetic protocol within the BLItz Pro system software. Biosensors were hydrated for ten minutes in assay buffer comprising 20 mM HEPES, 150 mM NaCl, 5 mM β-mercaptoethanol, pH 7.2. For each affinity measurement, a new, hydrated biosensor was placed on the BLItz tip, and the “Initial Baseline” step was completed by incubation for 30 seconds in 500 μl assay buffer in an opaque black microcentrifuge tube (Argos Technologies). Peptides were loaded during the “Loading Step” by incubating the tip in 4 μl of either peptide for 60 seconds. The “Baseline step” was then conducted by incubation for 30 seconds in 500 μl assay buffer in an opaque black microcentrifuge tube. The “Association step” was performed by incubating the tip in 4 μl of the appropriate TPR protein construct, at protein concentrations of 1 to 25 μM, in assay buffer in an opaque black microcentrifuge tube for 120 seconds. […] Affinities (Kd) were calculated by the BLItz Pro software as Kd=koff/kon, where koff and kon were determined by individual fits to the “dissociation step” and “association step,” respectively, for each run.

T1 sequence (Q9UNE7 21-154): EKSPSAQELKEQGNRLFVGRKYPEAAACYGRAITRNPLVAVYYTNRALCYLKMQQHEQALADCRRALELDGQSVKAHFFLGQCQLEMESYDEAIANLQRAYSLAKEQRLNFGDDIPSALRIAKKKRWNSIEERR

decrease in binding affinity of CHIP TPR towards the phosphorylated EEVD tail [1]: ~10 fold | association rate (CHIP-G132N): higher association rates
Substance: N-FITC-Ahx-GSGP(pT)IEEVD [pEEVD, phosphorylated HSP70 tail peptide used for fluorescent polarization]
decrease in interaction compared to the unmodified threonine (CHIP-WT or CHIP-G132N): 6–10 fold
